Values after ≈ are worked out from the molar mass of the structure shown. Where only a bound is given, the exact number is not on record here.

For one assay, the system named is B16. The experiment in a line: Antiproliferative activity measured against murine B16 melanoma cells. The assay is classed as functional, cell-based. To be noted: Mus musculus.
A short description of assay [1]: Selectivity was measured [Selectivity = (CC50/IC50) against HIV-1 infected CEM-SS cells]. The assay is classed as functional.
Another assay deals with P388CPT5. The experiment in a line: Antiproliferative activity measured against P388CPT5 cells resistant to Topoisomerase I inhibitor Camptothecin. It counts as functional, cell-based. To be noted: Mus musculus.
The target of assay [2] is T1, DNA topoisomerase 1 (Homo sapiens) (UniProt P11387).
T1 sequence (whole entry): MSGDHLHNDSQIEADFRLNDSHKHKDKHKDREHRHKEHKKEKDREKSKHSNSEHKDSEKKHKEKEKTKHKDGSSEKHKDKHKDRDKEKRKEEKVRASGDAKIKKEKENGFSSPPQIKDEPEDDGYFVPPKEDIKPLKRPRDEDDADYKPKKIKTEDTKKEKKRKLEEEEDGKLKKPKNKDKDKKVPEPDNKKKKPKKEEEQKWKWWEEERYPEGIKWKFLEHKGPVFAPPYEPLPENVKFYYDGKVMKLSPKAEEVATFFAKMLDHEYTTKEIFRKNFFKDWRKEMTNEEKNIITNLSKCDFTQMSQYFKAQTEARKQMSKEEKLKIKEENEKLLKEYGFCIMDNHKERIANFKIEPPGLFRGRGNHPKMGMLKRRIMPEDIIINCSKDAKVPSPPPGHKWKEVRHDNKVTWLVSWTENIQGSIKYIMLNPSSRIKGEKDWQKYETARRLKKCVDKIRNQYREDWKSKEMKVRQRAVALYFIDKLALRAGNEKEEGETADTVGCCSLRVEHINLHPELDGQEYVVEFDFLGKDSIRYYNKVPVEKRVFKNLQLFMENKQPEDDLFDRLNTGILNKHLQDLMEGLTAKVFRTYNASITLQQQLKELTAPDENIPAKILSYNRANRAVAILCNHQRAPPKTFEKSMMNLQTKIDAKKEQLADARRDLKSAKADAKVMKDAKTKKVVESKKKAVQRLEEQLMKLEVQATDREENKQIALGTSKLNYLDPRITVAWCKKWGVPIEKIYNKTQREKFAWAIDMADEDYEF
The experiment in a line: Inhibition of human Topoisomerase I.

The test system of the next assay is P388. The experiment in a line: Antiproliferative activity measured against P388 Leukemia cells. The assay is classed as functional, cell-based, Mus musculus.
The subject of assay [3] is Bacillus cereus. Nature of the assay: Antimicrobial activity is tested against Bacillus cereus. The assay is classed as functional.
The subject of a further assay is Streptomyces chartreusis. The experiment in a line: In Vitro growth inhibitory effect of compounds against Gram-Positive Bacteria Streptomyces chartreusis NRRL11407. The assay is classed as functional.
Assay [4] has as its system CEM-SS. The experiment in a line: Cytotoxic concentration is tested against CEM-SS cells. It counts as functional. The note with it: Homo sapiens.
Assay [5] relates to CEM-SS. The experiment in a line: Inhibitory concentration is tested in HIV-1 Lai-infected CEM-SS cells. It counts as functional, cell-based. The note with it: Homo sapiens.
The target of the next assay is Protein kinase C (PKC). Nature of the assay: Inhibition of Protein kinase C. It counts as protein assay.
The test system of assay [6] is Bacillus cereus. Nature of the assay: In Vitro growth inhibitory effect of compounds against Gram-Positive Bacteria Bacillus cereus ATCC 14579. The assay is classed as functional.

With `CO[C@H]1[C@H](O)[C@@H](O)[C@H](n2c3c(Cl)cccc3c3c4c(c5c6cccc(Cl)c6[nH]c5c32)C(=O)N(C)C4)O[C@@H]1CO.CO[C@H]1[C@H](O)[C@@H](O)[C@H](n2c3c(Cl)cccc3c3c4c(c5c6cccc(Cl)c6[nH]c5c32)CN(C)C4=O)O[C@@H]1CO`, the IC50 (commonly the point on the concentration scale where inhibition reaches its midpoint) with B16 was 0.48 µM; in the assay with P388CPT5 it was 4.03 µM; in the assay on P388 (Mus musculus, P388), 0.52 µM; in the assay with CEM-SS [5] it was 0.31 µM. Besides, the Selectivity index in assay [1] amounted to 5.5. Further, the MIC in assay [2] was 17.6 µM; with Bacillus cereus [3], above 88 µM. The molecule further returned an Inhibition zone in the assay with Streptomyces chartreusis of 9 mm. Besides, in the assay with CEM-SS [4], the CC50 (usually the concentration that lowers cell viability or growth by half) was 1.72 µM.

For `CO[C@H]1[C@H](O)[C@@H](O)[C@H](n2c3ccccc3c3c4c(c5c6ccccc6[nH]c5c32)C(=O)OC4=O)O[C@@H]1CO`, the IC50 in the assay with B16 is 17.5 µM; with P388CPT5, above 20 µM; with P388 (Mus musculus, P388), 6.36 µM; in the assay on CEM-SS [5] it was above 1.98 µM. For the same molecule, the MIC was 1.99 µM (≈ 1 µg/mL) in [2] and above 99 µM against Bacillus cereus [3]. This molecule yielded an Inhibition zone with Streptomyces chartreusis of 7 mm. The molecule also displayed a CC50 in the assay with CEM-SS [4] above 1.98 µM.

`CO[C@H]1[C@H](O)[C@@H](O)[C@H](n2c3ccccc3c3c4c(c5c6ccccc6[nH]c5c32)C(=O)N(C)C4=O)O[C@@H]1CO` registered a Selectivity index in assay [1] of 1.9. Also, the IC50 is 0.7 µM with P388CPT5; above 100 µM against Protein kinase C (PKC); 1.06 µM in the assay with P388 (Mus musculus, P388); 4.17 µM with CEM-SS [5]. For the same molecule, in the assay with Bacillus cereus [3], the MIC was found to be 1.55 µM (≈ 0.799 µg/mL). Also, it took 7.96 µM to reach half-maximal cytotoxicity with CEM-SS [4] (CC50).

Turning to `CO[C@H]1[C@H](O)[C@@H](O)[C@H](n2c3ccccc3c3c4c(c5c6ccccc6[nH]c5c32)C(=O)NC4=O)O[C@@H]1CO`, the IC50 in the assay with B16 is 0.9 µM; in the assay with P388CPT5, above 20 µM; in the assay on P388 (Mus musculus, P388), 0.69 µM; in the assay with CEM-SS [5] it was 0.16 µM. Moreover, the Selectivity index in assay [1] is on record as 5.6. Also, the MIC was 0.59 µM (≈ 0.296 µg/mL) in [2] and above 100 µM against Bacillus cereus [3]. The molecule further registered an Inhibition zone in the assay with Bacillus cereus [6] of 7 mm. In the assay on CEM-SS [4], it took 0.9 µM to reach half-maximal cytotoxicity (CC50).

With `CO[C@H]1[C@H](OC=O)[C@@H](O)[C@H](n2c3ccccc3c3c4c(c5c6ccccc6[nH]c5c32)C(=O)OC4=O)O[C@@H]1CO`, the MIC was 5.7 µM (≈ 3.02 µg/mL) in assay [2] and above 94 µM in the assay with Bacillus cereus [3]. Moreover, the IC50 in the assay on P388 (Mus musculus, P388) is above 19 µM; in the assay with CEM-SS [5] it was above 9.4 µM. For the same molecule, the Inhibition zone was 8 mm in the assay with Bacillus cereus [6] and 12 mm in the assay on Streptomyces chartreusis. The molecule further displayed a CC50 in the assay on CEM-SS [4] above 9.4 µM.

For `CO[C@H]1[C@H](O)[C@@H](O)[C@H](n2c3c(Cl)cccc3c3c4c(c5c6cccc(Cl)c6[nH]c5c32)C(=O)N(C)C4=O)O[C@@H]1CO` (stereo in doubt; A), the Selectivity index in assay [1] is 1.6. In addition, the IC50 is 0.6 µM with P388CPT5, above 100 µM against Protein kinase C (PKC), 0.61 µM with P388 (p388) and 5.06 µM in the assay with CEM-SS [5]. In the assay on Bacillus cereus [3], the MIC is above 85 µM. Further, in the assay with CEM-SS [4], the CC50 came to 8.06 µM.

Molecule `CO[C@H]1[C@H](O)[C@@H](O)[C@H](n2c3c(Cl)cccc3c3c4c(c5c6cccc(Cl)c6[nH]c5c32)C(=O)NC4)O[C@@H]1CO.CO[C@H]1[C@H](O)[C@@H](O)[C@H](n2c3c(Cl)cccc3c3c4c(c5c6cccc(Cl)c6[nH]c5c32)CNC4=O)O[C@@H]1CO` returned a Selectivity index in assay [1] of 3.2. Moreover, the IC50 was 3 µM in the assay on P388CPT5; 28.8 µM against Protein kinase C (PKC); above 125 µM with P388 (Mus musculus, P388); 0.36 µM in the assay with CEM-SS [5]. In addition, the MIC in assay [2] was determined as 1.8 µM; against Bacillus cereus [3] it was 5.6 µM. Moreover, the midpoint of cytotoxicity with CEM-SS [4], the CC50, lay at 1.15 µM.

Regarding `CO[C@H]1[C@H](O)[C@@H](O)[C@H](n2c3ccccc3c3c4c(c5c6ccccc6n(C)c5c32)C(=O)N(C)C4=O)O[C@@H]1CO`, the IC50 in the assay on B16 was 8 µM; with P388 (Mus musculus, P388), above 19 µM; in the assay with CEM-SS [5], above 19 µM. The MIC was above 19 µM in [2] and 94 µM (≈ 49.8 µg/mL) against Bacillus cereus [3]. For the same molecule, the results for the Inhibition zone in the assay with Bacillus cereus [6] and with Streptomyces chartreusis were 8 mm and 12 mm, respectively. The molecule also registered a CC50 with CEM-SS [4] above 19 µM.

Regarding `CO[C@H]1[C@H](O)[C@@H](O)[C@H](n2c3ccccc3c3c4c(c5c6ccccc6[nH]c5c32)C(=O)N(C)C4)O[C@@H]1CO.CO[C@H]1[C@H](O)[C@@H](O)[C@H](n2c3ccccc3c3c4c(c5c6ccccc6[nH]c5c32)CN(C)C4=O)O[C@@H]1CO`, the IC50 is 5 µM with B16; above 19.9 µM with P388CPT5; 3.39 µM in the assay on P388 (Mus musculus, P388); 0.6 µM in the assay with CEM-SS [5]. In addition, in assay [1], the Selectivity index is given as 14. Besides, the figures for the MIC (in assay [2]; with Bacillus cereus [3]) were 19.9 µM and 24 µM, respectively. Besides, the Inhibition zone with Bacillus cereus [6] and in the assay on Streptomyces chartreusis was 9 mm throughout. This molecule gave a CC50 in the assay on CEM-SS [4] of 8.38 µM.

For `CO[C@H]1[C@H](O)[C@@H](O)[C@H](n2c3ccccc3c3c4c(c5c6ccccc6n(C)c5c32)C(=O)OC4=O)O[C@@H]1CO`, the IC50 is 31 µM with B16; above 19 µM in the assay on P388 (Mus musculus, P388); above 9.7 µM in the assay on CEM-SS [5]. For the same molecule, the MIC in assay [2] was above 19 µM; in the assay with Bacillus cereus [3] it was above 97 µM. For the same molecule, the Inhibition zone in the assay with Streptomyces chartreusis came out at 7 mm. The molecule further yielded a CC50 in the assay with CEM-SS [4] above 9.7 µM.

With `CO[C@H]1[C@H](O)[C@@H](O)[C@H](n2c3ccccc3c3c4c(c5c6ccccc6[nH]c5c32)C(=O)NC4)O[C@@H]1CO.CO[C@H]1[C@H](O)[C@@H](O)[C@H](n2c3ccccc3c3c4c(c5c6ccccc6[nH]c5c32)CNC4=O)O[C@@H]1CO`, in assay [1], the Selectivity index is reported as 3.5. The IC50 with P388CPT5 was found to be 3 µM; against Protein kinase C (PKC), 3.7 µM; with CEM-SS [5], 4.1 µM. The MIC turned out to be 0.02 µM in [2] and 25 µM against Bacillus cereus [3]. The molecule also returned a CC50 in the assay with CEM-SS [4] of 14.3 µM.

Molecule `CO[C@H]1[C@H](O)[C@@H](O)[C@H](n2c3c(Cl)cccc3c3c4c(c5c6cccc(Cl)c6[nH]c5c32)C(=O)NC4=O)O[C@@H]1CO` [REBECCAMYCIN] yielded a Selectivity index in assay [1] of 2. The IC50 came to 10.5 µM in the assay with P388CPT5; 1.22 µM in the assay with P388 (Mus musculus, P388); 0.52 µM in the assay with CEM-SS [5]. Also, in the assay on Bacillus cereus [3], the MIC turned out to be 10.9 µM (≈ 6.22 µg/mL). Also, the Inhibition zone in the assay with Bacillus cereus [6] and with Streptomyces chartreusis was 9 mm each time. In addition, in the assay with CEM-SS [4], the CC50 was determined as 1.05 µM.

Regarding `CO[C@H]1[C@H](O)[C@@H](O)[C@H](n2c3ccc(Br)cc3c3c4c(c5c6cc(Br)ccc6[nH]c5c32)C(=O)OC4=O)O[C@@H]1CO`, the IC50 in the assay with B16 stood at 13 µM; in the assay with P388CPT5, 7.58 µM; with P388 (Mus musculus, P388) it was 0.91 µM; in the assay with CEM-SS [5], 4.85 µM. In assay [1], this molecule registered a Selectivity index of 1.9. The MIC in [2] is 1.52 µM (≈ 1 µg/mL); against Bacillus cereus [3] it was above 75 µM. In the assay with CEM-SS [4], this molecule gave a CC50 of 9.39 µM.

For the origin of these results see ChEMBL document CHEMBL1131383, “Syntheses and biological evaluation of indolocarbazoles, analogues of rebeccamycin, modified at the imide heterocycle” (J Med Chem, 1998).
